# Key:
# [1] = system: CYP1A2, CYP2B6, CYP2C8, CYP2C9, CYP2CI9, or CYP3A4/5; assay: CYP induction in human hepatocytes; assay type: in vitro ADME
# [2] = system: community-acquired pneumonia (CAP); assay: Example 4 Phase 3 study, ceftaroline vs ceftriaxone in CAP, efficacy; assay type: in vivo, human
# Text: The secondary objectives of the study were to evaluate the following: clinical response at end-of-therapy (EOT); the microbiological favorable outcome rate at TOC; the overall (clinical and radiographic) success rate at TOC; the clinical and microbiological response by pathogen at TOC; clinical relapse at late follow-up (LFU); microbiological reinfection/recurrence at LFU; and safety.
# The following criteria were used for evaluation: The primary efficacy outcome measures were the pet-subject clinical cure rate at test-of-cure (TOC) in the CE and MITTE Populations Subjects were considered clinically cured at TOC if they had total resolution of all signs and symptoms of the baseline infection, or improvement of the infection such that no further antimicrobial therapy was necessary.
# (§1) Non-inferiority was concluded if the lower limit of the 95% CI was higher than −10%.
# H. influenzae = assay: Example 4 CAP study, outcome by baseline pathogen; assay type: in vivo
# Text: (§2) Per-pathogen clinical cure rate and favorable microbiological outcome rate at TOC in the mMITTE and ME Populations;
# H. parainfluenzae = assay: Example 4 CAP study, outcome by baseline pathogen; assay type: in vivo
# Text: as §2
# K. pneumoniae = assay: Example 4 CAP study, outcome by baseline pathogen; assay type: in vivo
# Text: as §2
# S. aureus = assay: Example 4 CAP study, outcome by baseline pathogen; assay type: in vivo
# Text: as §2
# S. pneumoniae = assay: Example 4 CAP study, outcome by baseline pathogen; assay type: in vivo
# Text: as §2
# [3] = system: community-acquired pneumonia (CAP); assay: Example 5 Phase 3 study, ceftaroline vs ceftriaxone with adjunctive clarithromycin in CAP, efficacy; assay type: in vivo, human
# Text: The secondary objective of the study was to evaluate the following: the clinical response at end-of-therapy (EOT); the microbiological favorable outcome rate at TOC; the overall (clinical and radiographic) success rate at TOC; the clinical and microbiological response by pathogen at TOC; clinical relapse at late follow-up (LFU); microbiological reinfection/recurrence at LFU; and safety.
# The primary efficacy outcome measures were the per-subject clinical cure rate at TOC in the CE and MITTE Populations. Subjects were considered clinically cured at TOC if they had total resolution of all signs and symptoms of the baseline infection, or improvement of the infection such that no further antimicrobial therapy was necessary.
# as §1
# MDRSP = assay: Example 5 CAP study, outcome by baseline pathogen; assay type: in vivo, S. pneumoniae
# Text: as §2
# [4] = human, in vivo
# Description: (§3) Study-Drug: Ceftaroline fosamil was administered in two consecutive 300 mg intravenous (IV) infusions over 30 minutes, every 12 hours (q12h). The 600-mg dose of ceftaroline fosamil infused over 60 minutes was split into two infusions in order to maintain the blind. For subjects with moderate renal impairment (30 ml/min<CrCl≤50 ml/min), as estimated by the Cockroft-Gault formula, unblinded pharmacy staff or unblinded study staff could adjust the dose of ceftaroline fosamil to two consecutive 200 mg infusions and readjust dose to two 300 mg infusions when renal function improved (CrCl>50 mL/min). The duration of treatment was between 5 to 7 days.
# (§4) All subjects who received any amount of study drug were included in the safety analysis. Safety measures included monitoring for adverse events (AE) up to TOC and serious adverse events (SAE) through LFU; recording vital signs, physical examination, electrocardiogram (ECG), and clinical laboratory findings (clinical chemistry, hematology, and urinalysis), at prespecified times throughout the study.
# [5] = Example 4 CAP study, safety
# Description: as §3, §4
compound,measurement,setting,value
"CCO/N=C(\C(=O)N[C@@H]1C(=O)N2C(C(=O)[O-])=C(Sc3nc(-c4cc[n+](C)cc4)cs3)CS[C@H]12)c1nsc(N)n1 [Ceftaroline, ceftaroline]",induction of CYP isoenzymes,[1],not inducers
same,"Difference (ceftaroline minus ceftriaxone), Clinical Cure Rate at EOT","[2]; Example 4, CE",6.0%
same,"Difference (ceftaroline minus ceftriaxone), Clinical Success at TOC","[2]; Example 4, CE",4.9%
same,Clinical Success at the TOC Visit,"[2]; Example 4, CE population",193 (82.1) %
same,Per-subject Clinical Cure Rate at the EOT Visit,"[2]; Example 4, CE population",202 (86.0) %
same,"Difference (ceftaroline minus ceftriaxone), Favorable Microbiological Outcome at TOC","[2]; Example 4, ME",1.8%
same,Favorable Microbiological Outcome at the TOC Visit,"[2]; Example 4, ME population",72 (84.7) %
same,"Difference (ceftaroline minus ceftriaxone), Clinical Cure Rate at EOT","[2]; Example 4, MITTE",7.4%
same,"Difference (ceftaroline minus ceftriaxone), Clinical Success at TOC","[2]; Example 4, MITTE",5.9%
same,Clinical Success at the TOC Visit,"[2]; Example 4, MITTE population",235 (81.3) %
same,Per-subject Clinical Cure Rate at the EOT Visit,"[2]; Example 4, MITTE population",249 (86.2) %
same,"Difference (ceftaroline minus ceftriaxone), Favorable Microbiological Outcome at TOC","[2]; Example 4, mMITTE",0.4%
same,Favorable Microbiological Outcome at the TOC Visit,"[2]; Example 4, mMITTE population",74 (82.2) %
same,Favorable Microbiological Outcome at TOC by Baseline Pathogen,"H. influenzae; Example 4, ME",13/15 (86.7)
same,Clinical Cure Rate at the TOC Visit by Baseline Pathogen,"H. influenzae; Example 4, ME Population",13/15 (86.7)
same,Favorable Microbiological Outcome at TOC by Baseline Pathogen,"H. parainfluenzae; Example 4, ME",9/9 (100.0)
same,Clinical Cure Rate at the TOC Visit by Baseline Pathogen,"H. parainfluenzae; Example 4, ME Population",9/9 (100.0)
same,Favorable Microbiological Outcome at TOC by Baseline Pathogen,"K. pneumoniae; Example 4, ME",6/6 (100.0)
same,Clinical Cure Rate at the TOC Visit by Baseline Pathogen,"K. pneumoniae; Example 4, ME Population",6/6 (100.0)
same,Favorable Microbiological Outcome at TOC by Baseline Pathogen,"S. aureus; Example 4, ME",11/15 (73.3)
same,Clinical Cure Rate at the TOC Visit by Baseline Pathogen,"S. aureus; Example 4, ME Population",10/15 (66.7)
same,Favorable Microbiological Outcome at TOC by Baseline Pathogen,"S. pneumoniae; Example 4, ME",35/39 (89.7)
same,Clinical Cure Rate at the TOC Visit by Baseline Pathogen,"S. pneumoniae; Example 4, ME Population",33/39 (84.6)
same,"Difference (ceftaroline minus ceftriaxone), Clinical Cure Rate at EOT","[3]; Example 5, CE",7.6%
same,"Difference (ceftaroline minus ceftriaxone), Clinical Success at TOC","[3]; Example 5, CE",8.4%
same,Clinical Success at the TOC Visit,"[3]; Example 5, CE population",194 (86.6) %
same,Per-subject Clinical Cure Rate at the EOT Visit,"[3]; Example 5, CE population",197 (87.9) %
same,"Difference (ceftaroline minus ceftriaxone), Favorable Microbiological Outcome at TOC","[3]; Example 5, ME",11.0%
same,Favorable Microbiological Outcome at the TOC Visit,"[3]; Example 5, ME population",62 (89.9) %
same,"Difference (ceftaroline minus ceftriaxone), Clinical Cure Rate at EOT","[3]; Example 5, MITTE",6.3%
same,"Difference (ceftaroline minus ceftriaxone), Clinical Success at TOC","[3]; Example 5, MITTE",6.2%
same,Clinical Success at the TOC Visit,"[3]; Example 5, MITTE population",244 (83.8) %
same,Per-subject Clinical Cure Rate at the EOT Visit,"[3]; Example 5, MITTE population",253 (86.9) %
same,"Difference (ceftaroline minus ceftriaxone), Favorable Microbiological Outcome at TOC","[3]; Example 5, mMITTE",9.3%
same,Favorable Microbiological Outcome at the TOC Visit,"[3]; Example 5, mMITTE population",66 (88.0) %
same,Favorable Microbiological Outcome at TOC by Baseline Pathogen,"MDRSP; Example 5, ME",2/2 (100.0)
same,Clinical Cure Rate at the TOC Visit by Baseline Pathogen,"MDRSP; Example 5, ME Population",2/2 (100.0)
same,Adverse event: COPD,[4],8 (2.5) %
same,Adverse event: Diarrhea,[4],12 (3.8) %
same,Adverse event: Head ache,[4],11 (3.5) %
same,Adverse event: Pleural effusion,[4],4 (1.3) %
same,Adverse event: Pneumonia,[4],8 (2.5) %
same,study-drug-related TEAE: alanine aminotransferase increased,[4],0.3%
same,study-drug-related TEAE: blood creatinine phosphokinase increased,[4],1.3%
same,study-drug-related TEAE: heartache,[4],0.6%
same,subjects with any study-drug-related TEAEs,[4],12.4%
same,hemolytic anemia,[5],No evidence of hemolytic anemia
same,incidence of deaths,[5],2.9%

# Reference: patent publication US20180303853A1, “COMPOSITIONS AND METHODS FOR TREATING BACTERIAL INFECTIONS USING CEFTAROLINE” (priority 2017, published 2018)
